According to patent publication US9017692B2, “Antimicrobial agent, bacterial strain, biosynthesis, and methods of use” (priority 2011, dated 2015):

Assays:
[1] = test system: ECO.2276; assay: MIC, CLSI broth microdilution, Gram-negative clinical isolates; format: cell-based, Escherichia coli
Method: (§1) Plates were incubated at 35° C. for 24 h.
(§2) The activity of paenibacterin was also tested against clinical isolates of the following Gram-negative bacterial strains: four strains of the species Pseudomonas aeruginosa (PAE), three strains of the species Acinetobacter baumannii (ABA), two strains of the species Escherichia coli (ECO), and four strains of the species Klebsiella pneumoniae (KPN). Particularly, the strains of Gram-negative bacteria included polymyxin B-resistant (PMB-R) and polymyxin B-sensitive (PMB-S) strains of each above listed species. The MICs were determined using the above described CLSI broth microdilution method, in which the method was performed with both non-binding surface coated (NBS) and polystyrene (PS) 96-well plates (Tables 11 and 12, respectively). The MICs were generally lower in the NBS 96-well plates as compared to the PS 96-well plates.

[2] = test system: ATCC 25922 ECO.35; assay: as above; format: cell-based, Escherichia coli
Method: as §1, §2

[3] = test system: L. monocytogenes; assay: Antimicrobial spectrum test; format: cell-based, Listeria monocytogenes; conditions: gram-positive pathogens such as L. monocytogenes
Method: (§3) Spot-on-lawn method [He, Z., et al., Appl. Environ. Microbiol., (2007) 73:168-178] was used for the bioassay of antimicrobial activity. Bacterial indicators were incubated at 37° C. for 24 h, except Pseudomonas putida, Clostridium difficile and methycillin resistant Staphylococcus aureus which were incubated for 48 h (Table 1). The indicator overlay was prepared by pouring 10 ml soft agar (seeded with 10 μL indicator culture) onto tryptose agar as basal medium in a petri dish. Purified antimicrobials were two-fold serially diluted and aliquots (10 μL each) were spotted onto the soft agar. The plates were incubated overnight and inspected for the presence of growth inhibition zones. Antimicrobial activity was expressed in arbitrary units (AU)/mL; this value is the reciprocal of the highest dilution displaying a zone of inhibition corresponding to 1 mL of the non-diluted antimicrobial preparation.
(§4) Purified paenibacterin was used for the antimicrobial spectrum test. Microorganisms tested for sensitivity to this compound included pathogenic (e.g., Salmonella Typhimurium, Escherichia coli O157:H7, Listeria monocytogenes, and Staphylococcus aureus) and non-pathogenic (e.g., Escherichia coli K-12, Pseudomonas putida, and Enterococcus faecalis) bacteria (Table 1).

[4] = test system: L. monocytogenes OSY-8578; assay: Spot-on-lawn antimicrobial activity; format: cell-based, Listeria monocytogenes; conditions: TSBYE
Method: as §3, §4

[5] = test system: polymyxin B-resistant and polymyxin B-sensitive strains of Acinetobacter baumannii; assay: MIC, Table 11; format: cell-based; conditions: Table 11 (NBS plates)
Method: as §1, §2

[6] = test system: polymixin B-sensitive strains of Pseudomonas aeruginosa; assay: MIC, Table 11; format: cell-based; conditions: NBS plates
Method: as §1, §2

[7] = test system: polymixin B-sensitive strains of Escherichia coli; assay: MIC, Table 11; format: cell-based; conditions: NBS plates
Method: as §1, §2

[8] = test system: polymixin B-sensitive strains of Klebsiella pneumoniae; assay: MIC, Table 11; format: cell-based; conditions: NBS plates
Method: as §1, §2

[9] = test system: ABA.2232; assay: MIC, CLSI broth microdilution, Gram-negative clinical isolates; format: cell-based, Acinetobacter baumannii
Method: as §1, §2

[10] = test system: ABA.2315; assay: as above; format: cell-based, Acinetobacter baumannii
Method: as §1, §2

[11] = test system: ABA.1570; assay: as above; format: cell-based, Acinetobacter baumannii
Method: as §1, §2

[12] = test system: Lactobacillus plantarum ATCC 8014; assay: Spot-on-lawn antimicrobial activity; format: cell-based; conditions: MRS
Method: as §3, §4

[13] = test system: Salmonella enterica ser. Typhimurium; assay: Spot-on-lawn antimicrobial activity; format: cell-based; conditions: TSBYE
Method: as §3, §4

[14] = test system: Clostridium difficile A515; assay: Spot-on-lawn antimicrobial activity; format: cell-based; conditions: BHIYE
Method: as §3, §4

[15] = test system: Yersinia enterocolitica; assay: Spot-on-lawn antimicrobial activity; format: cell-based; conditions: TSBYE
Method: as §3, §4

[16] = test system: L. lactis ATCC 11454; assay: Spot-on-lawn antimicrobial activity; format: cell-based; conditions: MRS
Method: as §3, §4

[17] = test system: Pseudomonas putida ATCC 45491; assay: Spot-on-lawn antimicrobial activity; format: cell-based; conditions: TSBYE
Method: as §3, §4

[18] = test system: Enterococcus faecalis ATCC 29212; assay: Spot-on-lawn antimicrobial activity; format: cell-based; conditions: MRS
Method: as §3, §4

[19] = test system: Bacillus cereus ATCC 14579; assay: Spot-on-lawn antimicrobial activity; format: cell-based; conditions: TSBYE
Method: as §3, §4

[20] = test system: Listeria monocytogenes Scott A; assay: Spot-on-lawn antimicrobial activity; format: cell-based; conditions: TSBYE
Method: as §3, §4

[21] = test system: Staphylococcus aureus ATCC 6538; assay: Spot-on-lawn antimicrobial activity; format: cell-based; conditions: TSBYE
Method: as §3, §4

[22] = test system: L. innocua ATCC 33090; assay: Spot-on-lawn antimicrobial activity; format: cell-based, Listeria innocua; conditions: TSBYE
Method: as §3, §4

[23] = test system: Escherichia coli O157:H7; assay: Antimicrobial spectrum test; format: cell-based; conditions: gram-negative pathogens such as Escherichia coli O157:H7
Method: as §3, §4

## paenibacterin
[1]; NBS 96-well plates
  Minimum inhibitory concentration (MIC): 8 µg/mL
[1]; PS 96-well plates
  Minimum inhibitory concentration (MIC): 16 µg/mL
[2]; ECO.35 (ATCC 25922), NBS 96-well plates
  Minimum inhibitory concentration (MIC): 8 µg/mL
[2]; ECO.35, PS 96-well plates
  Minimum inhibitory concentration (MIC): 16 µg/mL
[3]
  Antimicrobial activity (in words): good activity
[4]
  Antimicrobial activity (AU/ml): 1600 AU/ml
[5]
  MIC: 2 µg/mL
[6]
  MIC: 8 µg/mL
[7]
  MIC: 8 µg/mL
[8]
  MIC: 8 µg/mL
[9]; NBS 96-well plates
  Minimum inhibitory concentration (MIC): 2 µg/mL
[9]; PS 96-well plates
  Minimum inhibitory concentration (MIC): 32 µg/mL
[10]; NBS 96-well plates
  Minimum inhibitory concentration (MIC): 2 µg/mL
[10]; PS 96-well plates
  Minimum inhibitory concentration (MIC): 32 µg/mL
[11]; NBS 96-well plates
  Minimum inhibitory concentration (MIC): 2 µg/mL
[11]; PS 96-well plates
  Minimum inhibitory concentration (MIC): 32 µg/mL
[12]
  Antimicrobial activity (AU/ml): 400 AU/ml
[13]
  Antimicrobial activity (AU/ml): 400 AU/ml
[14]
  Antimicrobial activity (AU/ml): 200 AU/ml
[15]
  Antimicrobial activity (AU/ml): 1600 AU/ml
[16]
  Antimicrobial activity (AU/ml): 800 AU/ml
[17]
  Antimicrobial activity (AU/ml): 400 AU/ml
[18]
  Antimicrobial activity (AU/ml): 0 AU/ml
[18]; listed as Paenibacterin
  Antimicrobial activity (AU/ml): no activity
[19]
  Antimicrobial activity (AU/ml): 800 AU/ml
[20]
  Antimicrobial activity (AU/ml): 800 AU/ml
[21]
  Antimicrobial activity (AU/ml): 100 AU/ml
[22]
  Antimicrobial activity (AU/ml): 1600 AU/ml
[23]
  Antimicrobial activity (in words): good activity
